Data on 1 compound can be found in patent US20190307820A1, “COMPOSITIONS AND METHODS OF USING STAT1/3 INHIBITORS WITH ONCOLYTIC HERPES VIRUS” (priority 2016, published 2019).

One assay has as its system MCF7 cells. Description: MTT cytotoxicity assay, MCF7 cells. In kind it is cell-based. Particulars: Homo sapiens, 72 hours, read-out: Inhibitory concentration 50% (IC50). As to the method:
FIGS. 1A-1B are graphs that show an anti-tumor effect of nifuroxazide. (FIG. 1A) Cells were treated with indicated concentration of nifuroxazide for 72 hours. Cytotoxicity was measured by using MTT assay. (FIG. 1B) Subcutaneously U87 tumor bearing mice were peritoneally injected with indicated doses of nifuroxazide. Tumor size was measured using calipers at day 7 post nifuroxazide treatment.
In this example, the antitumor effect of nifuroxazide is evaluated in different tumor cells. Cells were treated with nifuroxazide for 72 hours (FIG. 1A). […] To verify the anti-tumor efficacy of nifuroxazide in vivo, animals with subcutaneous U87 tumor implants were injected in the peritoneum with vehicle, 1 mg/kg nifuroxazide and 50 mg/kg nifuroxazide. […] Tumor volume was reduced around 25% and 60% after 7 days treatment with 1 mg/kg nifuroxazide and 50 mg/kg nifuroxazide respectively (FIG. 1B).
Cells were seeded in a 96-well plate at a density of 1×104 (U87). After overnight incubation, cells were treated with only vehicle or indicated MOI of virus or indicated concentration of drugs or reagents. After 2 to 3 days of treatment cell viability was measured by MTT assay (Sigma, Canada) according to the manufacturer's instruction. […] After overnight incubation with lysis buffer, cell viability was measured at 595 nm using a plate reader (Envision 2103 Multilabel reader, Perkin Elmer).

In a further assay the test system is HrR3 in U87 glioma cells. The experiment in a line: PCR viral titer (ICP27 qPCR) of HrR3 in U87 glioma cells. Particulars: HrR3 MOI of 1, 48 hours. In kind it is cell-based, HSV-1. As for the experimental part:
FIGS. 2A-2B contain charts that show the effect of nifuroxazide on replication of oHSV-1. (FIG. 2A) Indicated cells were infected with HrR3 viruses at MOI-0.1. Viruses were harvested at 48 hours post-infected and titrated in vero cells. Data are presented as mean SD, *P<0.05 vs corresponding vehicle treatment. (FIG. 2B) U87 or glio cells were treated with HrR3 at a MOI of 1 and indicated concentration of nifuroxazide for 48 hours. Total DNA was extracted and subjected to qPCR to detect HSV-1 using ICP27 primer. nifuroxazide mediated oHSV-1% increase was represented in the figure.
In this example, the effect of nifuroxazide on oHSV-1 anti-tumor efficacy was evaluated. oHSV-1 infected treated glioma cells were incubated with low concentration of nifuroxazide. Replication increased 27- and 40-fold with 0.5 μM nifuroxazide and 10 μM nifuroxazide treated U87 cells respectively. Similarly, virus replication increased 0.8- and 4.7-fold virus in 9L cells treated with 0.5 μM nifuroxazide and 10 μM nifuroxazide respectively (FIG. 2A).
In general terms: In qPCR the cycle at which signal appears reflects the starting amount.

In assay [1] the test system is CT26, LL2, U87, B16, 4T1 tumor cells. Description: Cell survival (MTT) of tumor cell panel with nifuroxazide and/or virus. In kind it is cell-based. Particulars: nifuroxazide 0-100 μM. The source says: FIGS. 7A-7L show results of treatment of tumor cells with nifuroxazide and oHSV-1. FIG. 7A-7C show cell survival for tumor cells CT26, LL2 and U87 treated with nifuroxazide or HrR3 or KOS. FIG. 7D-7G show cell survival of tumor cells, U87, CT26, 4T1 and LL2, treated first with nifuroxazide and then HrR3 virus. FIG. 7H-7K show combination index (CI) values for tumor cells treated with varying doses of nifuroxazide or the viruses, HrR3 or KOS, or VG12TR, alone or in combination. FIG. 7L is a table presenting the dose reduction index for a combination of nifuroxazide and HrR3 virus.
In this example, the effect of nifuroxazide and oHSV-1 on tumor cells was evaluated. A variety of cancer cell types were treated with nifuroxazide (from 0-100 μM) or HrR3 virus at a MOI from 0 to 12.5 or KOS virus at a MOI from 1 to 12.5. Cell survival was measured.
Tumor cells were treated with nifuroxazide or medium. Following incubation, virus was added and further incubated for 72 (FIG. 7D) or 48 hrs (FIG. 7E-7G). Cytotoxicity was measured by an MTT assay. […]
If FIG. 7H-7K, cells were treated with varying doses of nifuroxazide or the indicated viruses (HrR3, KOS, or VG12TR) alone or in combination for 48 hrs (7J, 7K) or 72 hrs (7H) Cell viability was measured by a MTT assay and combination index (CI) values were calculated using Chour-Talalay analysis. […]

For the next assay, the target named is T1, STAT3 (Mus musculus, UniProt P42227).
T1 construct: Total protein was extracted after 24 hours and subjected to western blot analysis; endogenous in cells; host or cells: CT26 cells, with or without HrR3 infection
Description: Western blot of STAT3 phosphorylation in CT26 cells. In kind it is cell-based. Particulars: 24 hours. As for the experimental part: FIG. 19A and FIG. 19B, U87 cells (A) or CT26 cells (B) were treated with the indicated concentrations of HrR3 or NF or a combination. Total protein was extracted after 24 hours and subjected to western blot analysis. Band intensity was measured using Image J software and normalized to β-actin. Samples were run in triplicate and data are as means±S.E. Statistically significant differences are indicated by P<0.05 or P<0.01. FIG. 19C, Mice subcutaneously bearing U87 tumors were intratumorally injected with a single dose of HrR3 virus (1×10^6 PFU) and/or peritoneally injected doses of NF as indicated. Tumors were harvested on day 10 post treatment and total protein was extracted from a mouse of each treatment group and subjected to western blot analysis in triplicate. Results are reported as means±S.E.
NF is a known inhibitor of STAT1 and STAT3. To evaluate the underlying molecular mechanism of the anti-tumour effect of the NF and oHSV-1 combination, the STAT1 and STAT3 status in U87 cells (FIG. 19A) and CT26 cells (FIG. 19B) cells was determined after an overnight treatment with NF and oncolytic viruses.
Background: A western blot detects proteins with antibodies after separation by electrophoresis.

T1 sequence (P42227 whole entry): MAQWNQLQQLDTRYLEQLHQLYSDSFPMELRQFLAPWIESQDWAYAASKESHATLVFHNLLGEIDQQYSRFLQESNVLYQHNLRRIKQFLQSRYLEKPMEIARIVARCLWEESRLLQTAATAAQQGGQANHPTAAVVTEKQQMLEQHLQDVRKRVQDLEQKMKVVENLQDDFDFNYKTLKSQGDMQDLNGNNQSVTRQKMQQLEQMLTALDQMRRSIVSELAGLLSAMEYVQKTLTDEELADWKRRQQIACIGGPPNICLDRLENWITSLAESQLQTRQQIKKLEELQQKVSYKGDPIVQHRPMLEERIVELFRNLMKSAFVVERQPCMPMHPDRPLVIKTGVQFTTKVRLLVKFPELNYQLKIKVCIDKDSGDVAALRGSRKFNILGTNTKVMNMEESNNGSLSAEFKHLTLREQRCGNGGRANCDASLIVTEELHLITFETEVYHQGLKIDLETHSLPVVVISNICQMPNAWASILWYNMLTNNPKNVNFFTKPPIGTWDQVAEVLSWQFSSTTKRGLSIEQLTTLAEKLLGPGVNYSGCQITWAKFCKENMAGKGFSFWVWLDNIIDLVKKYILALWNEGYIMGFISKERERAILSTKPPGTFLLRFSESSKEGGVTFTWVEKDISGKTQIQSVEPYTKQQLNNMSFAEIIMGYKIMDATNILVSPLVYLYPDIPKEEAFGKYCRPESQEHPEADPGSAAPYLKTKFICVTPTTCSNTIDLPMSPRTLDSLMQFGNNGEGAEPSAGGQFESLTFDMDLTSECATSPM

`O=C(N/N=C/c1ccc([N+](=O)[O-])o1)c1ccc(O)cc1` [nifuroxazide, Benzoic acid, 4-hydroxy-, [(5-nitro-2-furanyl)metylene]hydrazide]: the IC50 in the assay on MCF7 cells was ~20 µM. Besides, the PCR viral titer entry in the assay on HrR3 in U87 glioma cells is “dose dependent HrR3 replication enhancement”. Besides, the Cell survival result in assay [1] was “caused cell mortality in all cell lines at higher doses”. The “HrR3 induced upregulation of STAT3 phosphorylation” value at STAT3 is “effectively suppressed”. In addition, on STAT3 (NF alone), the “phosphorylation of STAT3” value was “dose dependent inhibition”.
